Source: patent US6352976B1, “Selective inhibitors of MMP-12” (Aventis Pharmaceuticals Inc., priority 1998, dated 2002)

Molecular target: T1, MMP-12 (macrophage metalloelastase) (Homo sapiens, UniProt P39900)
T1 construct: made in house
Test: Determination of the inhibition constant (Ki) for MMP-12, fluorogenic substrate
Type: biochemical
Settings: compared to their N-methylamide derivatives (Examples 6 and 7); from Ki values of Table 2
Method: MMP-12 (EC3.4.24.65) was cloned, expressed and purified according to Shapiro, S. D. et al., J Biol. Chem. 268, 23824-23829 (1993). […] Aliquots of MMP-12 were stored at −70° C.
The potency of inhibitors of MMP-12 was measured using either quartz cuvettes or microtiter plates. The activity of MMP-12 was measured using a fluorogenic substrate, Mca-Pro-Leu-Gly-Leu-Dpa-Ala-Arg-NH2 SEQ ID NO1, Knight, C. G. et al., FEBS Lett. 296,263-266 (1992), at 25° C. in an assay buffer containing 50 mM Tris, pH 7.6, 0.2 M sodium chloride, 50 mM calcium chloride, and 0.02% Brij-35. The increase in fluorescence due to cleavage of Gly-Leu peptide bond by MMP-12 was monitored with a Perkin-Elmer LS50B Fluorimeter (λex 328 nm, λem 393 nm, excitation slit 2.5, emission slit 10) for the cuvette assay and with a Molecular Devices Fmax fluorescence plate reader (λex 320 nm, λem 405 nm) for the microtiter plate assay. Substrate and inhibitor stock solutions were made in N,N-dimethylformamide (DMF) and 0.1% HCl-DMF, respectively.
Ki values were determined using the cuvette method by preparing a series of intermediate inhibitors solutions in 0.1% HCl-DMF and mixing the inhibitor with substrate (final concentration 2 μM) in a quartz cuvette containing 2 ml of assay buffer. MMP-12 was added to start the reaction at a concentration of 2 nM and progress curves were generated. For routine measurement of a Ki value for a reversible competitive inhibitor, the initial rates in the presence of at least four inhibitor concentrations (two concentrations above and two concentrations below the Ki) were measured [S]=2 μM (<<Km) and [MMP-12]=2 nM. Under these conditions, the measured Ki,app is close to the true Ki.
Ki values were determined using the microtiter plate method in a manner similar to that described for the cuvette method with some modifications. Four different inhibitor concentrations (50 μl in assay buffer) of each compound were added to separate wells of a microtiter plate and substrate was added (100 μl) to get a final concentration of […]. MMP-12 was added to a final concentration of 2 nM (50 μl) to start the reaction. Cleavage of substrate was recorded every 30 seconds for 30 minutes and progress curves were generated.
The Ki for a competitive inhibitor was calculated using: V0/Vi=(1+[I]/Ki,app) and Ki=Ki,app/(1+[S]/Km), where V0 is the initial rate in the absence of inhibitor, Vi is the initial rate in the presence of inhibitor at the concentration of [I], [S] is the substrate concentration, and Km is the Michaelis constant. If slow binding is observed (i.e. if the approach to the binding equilibrium is slow), the final steady-state rate rather than the initial rate is taken as Vi.

T1 sequence (P39900 106-263 limits assumed): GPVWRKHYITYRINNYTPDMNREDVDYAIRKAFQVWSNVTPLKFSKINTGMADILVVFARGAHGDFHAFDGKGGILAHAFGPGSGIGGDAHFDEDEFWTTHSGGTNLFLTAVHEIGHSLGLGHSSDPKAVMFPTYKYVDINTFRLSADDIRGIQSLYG

Structure (SMILES)	selectivity for MMP-12 over MMP-1, MMP-2, and MMP-3
CCCC(S)C(=O)N[C@@H](CCc1ccccc1)C(=O)N[C@@H](Cc1ccccc1)C(=O)O (some centres unmarked) [Example 1, 2-Mercapto-pentanoyl-(L)-homo-phenylalanyl-(L)-phenylalanine]	selective for MMP-12 over MMP-1, MMP-2, and MMP-3
CC(C)[C@H](S)C(=O)N[C@@H](CCc1ccccc1)C(=O)N[C@@H](Cc1ccccc1)C(=O)O [Example 2, (S)-2-Mercapto-3-methylbutyroyl-(L)-homo-phenylalanyl-(L)-phenylalanine]	selective for MMP-12 over MMP-1, MMP-2, and MMP-3
